Target: AChE (Homo sapiens, UniProt P22303)
Type: biochemical
Conditions: result in words

Chain of AChE (P22303 32-614): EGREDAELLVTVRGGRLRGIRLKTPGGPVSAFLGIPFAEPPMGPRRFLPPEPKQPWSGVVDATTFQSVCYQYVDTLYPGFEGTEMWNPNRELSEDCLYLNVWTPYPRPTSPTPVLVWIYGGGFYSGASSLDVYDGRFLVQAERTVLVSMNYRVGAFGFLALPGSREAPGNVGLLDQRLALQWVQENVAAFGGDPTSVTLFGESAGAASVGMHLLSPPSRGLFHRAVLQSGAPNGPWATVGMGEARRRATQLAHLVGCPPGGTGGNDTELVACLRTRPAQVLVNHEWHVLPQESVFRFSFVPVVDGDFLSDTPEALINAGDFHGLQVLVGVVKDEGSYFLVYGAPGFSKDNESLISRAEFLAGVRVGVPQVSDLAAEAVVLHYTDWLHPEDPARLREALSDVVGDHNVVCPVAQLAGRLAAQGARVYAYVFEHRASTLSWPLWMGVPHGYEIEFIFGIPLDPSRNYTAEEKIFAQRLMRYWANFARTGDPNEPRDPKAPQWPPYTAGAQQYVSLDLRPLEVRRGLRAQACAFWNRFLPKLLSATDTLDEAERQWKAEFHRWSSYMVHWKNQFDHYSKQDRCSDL

## Cc1cc(CSCCc2nc3ccccc3[nH]2)c(O)c(CSCCc2nc3ccccc3[nH]2)c1 [NSC620023]
  inhibition of AChE: no inhibition of AChE at all

Reference: publication PMC6953623 (Bioorganic & medicinal chemistry letters, 2019)
